Values quoted from earlier work as cited in patent publication US20110071125A1, “SUBSTITUTED PHENYLAMINO-BENZENE DERIVATIVES USEFUL FOR TREATING HYPER-PROLIFERATIVE DISORDERS AND DISEASES ASSOCIATED WITH MITOGEN EXTRACELLULAR KINASE ACTIVITY” (priority 2007, published 2011).

Test system: colon cancer
Conditions: oral treatment, mouse models, ref. [18]

O=C(NOCC1CC1)c1ccc(F)c(F)c1Nc1ccc(I)cc1Cl [PD184352]
colon cancer growth in vivo: inhibit colon cancer growth in vivo
